Assay results reported in article PMC6684226, “Neuropeptide B mediates female sexual receptivity in medaka fish, acting in a female-specific but reversible manner” (eLife, 2019).

Key:
[1] = tested on: npba expression in Vs/Vp and PMm/PMg; assay: npba expression in brain nuclei of gonad-intact medaka after immersion drug treatment (in situ hybridization); assay type: in vivo, medaka (Oryzias latipes); details: ovary-intact adult females, n = 5
Description: (§1) DNA fragments of 645 bp, 647 bp, and 1520 bp corresponding to nucleotides 1–645 of the medaka npba cDNA (GenBank accession number NM_001308979), 1–647 of the medaka npbb EST clone of National BioResource Project (NBRP) Medaka (http://www.shigen.nig.ac.jp/medaka/) (clone ID: olova57o22), and 1699–3218 of the medaka npbwr2 cDNA (deposited in DDBJ/EMBL/GenBank with accession number LC375958), respectively, were PCR-amplified and subcloned into the pGEM-Teasy vector (Promega, Madison, WI). The resultant constructs were used to generate digoxigenin (DIG)-labeled cRNA probes for npba, npbb, and npbwr2 by using the DIG RNA Labeling Mix and T7 RNA polymerase (Roche Diagnostics). The procedure for in situ hybridization has been described previously ([Hiraki et al., 2012]). In brief, the brain, pituitary, and/or spinal cord were fixed in 4% paraformaldehyde (PFA), embedded in paraffin, and cut into 10 μm sections in the coronal plane. Hybridization signals were visualized by using alkaline phosphatase-conjugated anti-DIG antibody (Roche Diagnostics) and 5-bromo-4-chloro-3-indolyl phosphate/nitro blue tetrazolium (BCIP/NBT) substrate (Roche Diagnostics). Color development was allowed to proceed overnight or was stopped after 2–3 hr (for quantification of npba expression in Vs/Vp) or 15–30 min (for quantification of npba expression in PMm/PMg) to avoid saturation. All sections in each comparison were processed simultaneously under the same conditions.
(§2) To obtain quantitative data, the number of npba/npbb-expressing neurons in each brain nucleus or each brain/spinal cord region was counted manually. In some analyses, the resulting sections were photographed and converted to black and white binary images by thresholding using Adobe Photoshop (Adobe Systems, San Jose, CA), and the total area of npba/npbb expression was calculated by using ImageJ (http://rsbweb.nih.gov/ij/). The threshold was set manually by visual inspection of the images to successfully separate specific signals from background noise. Brain nuclei were identified by using medaka brain atlases ([Anken and Bourrat, 1998]; [Ishikawa et al., 1999]); http://www.shigen.nig.ac.jp/medaka/medaka_atlas/), supplemented with information from our Nissl-stained sections ([Kawabata et al., 2012]).
(§3) In another experiment, females with intact ovaries were treated with 100 ng/ml of KT or AI (Fadrozole; Sigma-Aldrich, St. Louis, MO) by immersion in water for 9 days. […] These fish were sampled on days 0 (untreated controls), 2, 5, and 9. The sex steroid concentration used was based on previously reported serum steroid levels in medaka ([Foran et al., 2002]; [Foran et al., 2004]; [Tilton et al., 2003]).

[2] = tested on: npbb expression in Vs/Vp and PMm/PMg/PPp; assay: npbb expression in brain nuclei of gonad-intact medaka after immersion drug treatment (in situ hybridization); assay type: in vivo, medaka (Oryzias latipes); details: n = 5
Description: as §1, §2, §3

[3] = tested on: npbb expression in Vs/Vp and PMm/PMg/PPp; assay: npbb expression in brain nuclei of gonadectomized medaka after sex steroid supplementation (in situ hybridization); assay type: in vivo, medaka (Oryzias latipes); details: n = 5
Description: DNA fragments of 645 bp, 647 bp, and 1520 bp corresponding to nucleotides 1–645 of the medaka npba cDNA (GenBank accession number NM_001308979), 1–647 of the medaka npbb EST clone of National BioResource Project (NBRP) Medaka (http://www.shigen.nig.ac.jp/medaka/) (clone ID: olova57o22), and 1699–3218 of the medaka npbwr2 cDNA (deposited in DDBJ/EMBL/GenBank with accession number LC375958), respectively, were PCR-amplified and subcloned into the pGEM-Teasy vector (Promega, Madison, WI). The resultant constructs were used to generate digoxigenin (DIG)-labeled cRNA probes for npba, npbb, and npbwr2 by using the DIG RNA Labeling Mix and T7 RNA polymerase (Roche Diagnostics). […] Color development was allowed to proceed overnight or was stopped after 2–3 hr (for quantification of npba expression in Vs/Vp) or 15–30 min (for quantification of npba expression in PMm/PMg) to avoid saturation. […]
To obtain quantitative data, the number of npba/npbb-expressing neurons in each brain nucleus or each brain/spinal cord region was counted manually. In some analyses, the resulting sections were photographed and converted to black and white binary images by thresholding using Adobe Photoshop (Adobe Systems, San Jose, CA), and the total area of npba/npbb expression was calculated by using ImageJ (http://rsbweb.nih.gov/ij/). […]

[4] = tested on: npba expression in the whole brain; assay: npba expression in whole brain of ovariectomized ΔERE mutant females treated with E2 (real-time PCR); assay type: in vivo, medaka (Oryzias latipes); details: OVX + 100 ng/ml E2, 6 days, n = 6 per group
[5] = tested on: estradiol-17β (E2) in the brain; assay: Brain levels of E2 in KT-treated females (LC-MS/MS); assay type: in vivo, medaka (Oryzias latipes); details: females treated with 100 ng/ml KT by immersion; within 2 days, low during remainder of treatment; n = 4 per sampling day; p<0.0001 on days 2, 5, and 9
Method: as §3
Dissected whole brains were frozen and stored at −80°C until analysis. Levels of E2 in the brains were analyzed by liquid chromatography coupled to tandem mass spectrometry (LC-MS/MS) at Aska Pharmamedical (Kanagawa, Japan).

Cckar expression = details: ref Xu et al., 2012, cited from earlier work
Description: Another distinctive aspect of npba expression is the bidirectional reversibility of sexual dimorphism (both from female-typical to male-typical pattern and from male-typical to female-typical pattern). […] In mice, for example, the cholecystokinin receptor gene (Cckar) implicated in female sexual receptivity is expressed in the ventr ...

[6] = tested on: npba expression in Vs/Vp and PMm/PMg; set-up: method as in Kikuchi et al., 2019; details: adult males treated with estrogen; ref Kikuchi et al., 2019; cited from earlier work
[7] = tested on: ER expression in Vs/Vp and PMm/PMg; details: males treated with estrogen; ref Hiraki et al., 2012; cited from earlier work
Description: Importantly, our results provide insight into the mechanisms underlying the reversal of sexually dimorphic npba expression. […] Considering these findings, it seems plausible that this estrogen-induced npba expression is not fully realized until sufficient ER expression is achieved.

[8] = tested on: npba expression in Vs/Vp and PMm/PMg; details: estrogen replacement, ref Hiraki et al., 2014; cited from earlier work
Description: We determined whether the sexual phenotype of npba expression can be reversed from the female to the male pattern, and vice versa, by altering the adult sex steroid milieu. […] Here, we first tested whether npba expression in these brain nuclei can be induced in males by castration and sex steroid supplementation.

For `N#Cc1ccc(C2CCCc3cncn32)cc1` (stereo not drawn) [AI, Fadrozole], which “number of npba-expressing neurons in Vs/Vp (compared with KT treatment)” value ([1]; 100 ng/ml AI by immersion, p<0.0001 on days 2, 5, and 9) is on record?
Its value is “essentially the same results”.

What about the “total area of npba expression in Vs/Vp (compared with KT treatment)” value ([1]; 100 ng/ml AI by immersion, p=0.0063 and 0.0025 on days 5 and 9) of the same compound?
Its value is “essentially the same results”.

What about the “total area of npba expression in PMm/PMg (compared with KT treatment)” value ([1]; 100 ng/ml AI by immersion, p=0.0108 on day 9) of the same compound?
Its value is “essentially the same results”.

What about the “npbb expression in PMm/PMg/PPp (significant decrease)” value ([2]; ovary-intact adult females, 100 ng/ml AI by immersion, 9 days) of the same compound?
Its value is “not AI treatment”.

What about the “number of npbb-expressing neurons in Vs/Vp” value ([2]; ovary-intact adult females, 100 ng/ml AI by immersion, p=0.0002 and <0.0001 on days 5 and 9) of the same compound?
The value was “undetectable or nearly undetectable levels”.

And the “total area of npbb expression in Vs/Vp” value ([2]; ovary-intact adult females, 100 ng/ml AI by immersion, p=0.0013 and 0.0009 on days 5 and 9)?
The value was “undetectable or nearly undetectable levels”.

What does the source list for `C[C@]12CC[C@@H]3c4ccc(O)cc4CC[C@H]3[C@@H]1CC[C@@H]2O` [E2, estradiol-17β]?
npbb-expressing neurons in Vs/Vp of castrated males ([3]; castrated adult males, 100 ng/ml E2, 6 days, p<0.0001): induced a few npbb-expressing neurons in Vs/Vp; npbb-expressing neurons in Vs/Vp ([2]; testis-intact adult males, 100 ng/ml E2 by immersion, p=0.0369): a few npbb-expressing neurons were newly induced in Vs/Vp; npba expression in the whole brain, mutant versus wild-type females ([4]; p=0.0023): not able to restore npba expression to the level present in wild-type females; npba expression in the whole brain after ovariectomy and E2 treatment ([4]; ΔERE mutant females): restored by E2 treatment

For `C[C@]12CC(=O)[C@H]3[C@@H](CCC4=CC(=O)CC[C@@]43C)[C@@H]1CC[C@@H]2O` [KT, 11-ketotestosterone], which “brain E2 levels, percent of untreated controls” value [5] is on record?
The value was “less than 5%”.

What about the “npbb expression in Vs/Vp and PMm/PMg/PPp after ovariectomy (restoration)” value ([3]; ovariectomized adult females, 100 ng/ml KT, 6 days) of the same compound?
The value was “not by KT”.

What about the “number of npba-expressing neurons in PMm/PMg” value ([1]; 100 ng/ml KT by immersion, 9 days) of the same compound?
The value was “unchanged”.

What about the “total area of npba expression in Vs/Vp” value ([1]; 100 ng/ml KT by immersion, 9 days, p=0.0002 on day 2, p<0.0001 on days 5 and 9) of the same compound?
Its value is “undetectable or nearly undetectable levels”.

And the “number of npba-expressing neurons in Vs/Vp” value ([1]; 100 ng/ml KT by immersion, days 0, 2, 5, 9, p<0.0001 on days 5 and 9 versus day 0)?
Its value is “undetectable or nearly undetectable levels”.

And the “total area of npba expression in PMm/PMg” value ([1]; 100 ng/ml KT by immersion, p=0.0068 on day 9)?
The value was “significant decline”.

What about the “npbb expression in PMm/PMg/PPp” value ([2]; ovary-intact adult females, 100 ng/ml KT by immersion, number of neurons p=0.0038 on day 9, total area p=0.0021 and <0.0001 on days 5 and 9) of the same compound?
Its value is “significant decrease”.

What about the “number of npbb-expressing neurons in Vs/Vp” value ([2]; ovary-intact adult females, 100 ng/ml KT by immersion, p<0.0001 on days 5 and 9) of the same compound?
Its value is “undetectable or nearly undetectable levels”.

And the “total area of npbb expression in Vs/Vp” value ([2]; ovary-intact adult females, 100 ng/ml KT by immersion, p=0.0235, <0.0001, <0.0001 on days 2, 5, and 9)?
The value was “undetectable or nearly undetectable levels”.

What does the source list for estrogen?
Cckar expression in ventromedial nucleus of the hypothalamus, males (Cckar expression; adult males treated with estrogen): does not induce expression of Cckar; Cckar expression in ventromedial nucleus of the hypothalamus, females (Cckar expression; ovariectomized adult females treated with estrogen): reinstated by treatment with estrogen; emergence of Npba-expressing neurons in adult males [6]: emerged in adult males treated with estrogen; ER expression in Vs/Vp and PMm/PMg of males [7]: induces ER expression; npba expression in Vs/Vp and PMm/PMg of ovariectomized females [8]: restored by estrogen replacement
